Test results published in publication PMC10761937, “Functional engineering of human iPSC‐derived parasympathetic neurons enhances responsiveness to gastrointestinal hormones” (FEBS Open Bio, 2023).

Experiments:
GLP1R = test: cAMP accumulation assay, GLP1R‐HEK293T cells; format: cell-based, human; conditions: 0, 0.01, 0.1, 1, 10, 100 nM GLP1, 0.5 mM IBMX, 37 °C, 30 min, cAMP ELISA, n = 3
Protocol: (§1) HEK293T cells (Lenti‐X 293T Cell line; TaKaRa, Shiga, Japan) were maintained in Dulbecco's Modified Eagle Medium (DMEM; Fujifilm Wako Pure Chemical Industries, Osaka, Japan) supplemented with 10% fetal bovine serum (Biowest, Nuaillé, France), 1% non‐essential amino acids (NEAA) (Fujifilm Wako Pure Chemical Industries), and 1% penicillin–streptomycin (P/S) (Fujifilm Wako Pure Chemical Industries) and cultured in non‐coated culture plates at 37 °C and in an incubator with 5% CO2. The culture medium was replaced every 2–3 days. At 80–90% confluence, the cell colonies were digested into single cells using TrypLE Express (Thermo Fisher Scientific). The resulting cells were used for lentiviral transfection and agonist experiments.
(§2) Figure S1 presents the protocol used for this experiment. Lentiviral vectors were acquired from VectorBuilder (VectorBuilder Japan, Inc., Kanagawa, Japan). The mCherry expression vector (pLV‐Puro‐EF1A‐mCherry) was used as a control. pMD2.g plasmid (Addgene plasmid# 12259; RRID: Addgene 12259, Watertown, MA, USA) and psPAX2 plasmids (Addgene plasmid# 12260; RRID: Addgene 12260) were used as packaging plasmids. To produce lentiviruses, HEK293T cells were transduced with lentiviral vectors and packaging constructs containing 2 μg of lentivirus plasmids, 1 μg of pMD2.g, and 1 μg of psPAX2 plasmids using polyethyleneimine (PEI; Polysciences Inc., Warrington, PA, USA). […]

rat nodal ganglion cells = conditions: various concentrations; ref [31], [32], [33], [34]; cited from earlier work
From the text: Previous reports indicate that rat nodal ganglion cells respond to various concentrations of hormones, including CCK, GLP1, PYY, and 5‐HT [31, 32, 33, 34]. […] However, it is noteworthy that the overexpression of these receptors in our model may not reconstruct natural expres ...

NPY2R = test: cAMP accumulation assay, NPY2R‐HEK293T cells; format: cell-based, human; conditions: 0, 1, 10, 100 nM PYY, 0.5 mM IBMX, 10 μM FSK, 37 °C, 30 min, cAMP ELISA, n = 3
Protocol: as §1, §2

Substance | cAMP production (GLP1R) | Response of rat nodal ganglion cells (rat nodal ganglion cells) | Intracellular cAMP levels (Gi function) (NPY2R)
GLP1: GLP1 (4280‐v; Peptide Institute, Inc.); GLP1 (7–37) in Ca2+ imaging (HAEGTFTSDVSSYLEGQAAKEFIAWLVKGRG; Glucagon-like peptide 1(7-37); UniProt P01275 98-128, looked up) | increased cAMP production with increasing GLP1 concentration | respond | –
PYY: PYY (4400‐v; Peptide Institute, Inc.); PYY (3–36) in Ca2+ imaging | – | respond | decreased in a concentration‐dependent manner
